Source: patent US9926293B2, “Multivalent RAS binding compounds” (THE TRUSTEES OF COLUMBIA UNIVERSITY IN THE CITY OF NEW YORK, priority 2014, dated 2018)
Read-outs that look alike come from different tables or passages of the source.

Assays:
[1] = Aqueous solubility as noted during MST; assay type: physicochemical; details: noted in MST buffer
GppNHp-loaded KRASG12D = target: T1, GppNHp-loaded KRASG12D (Homo sapiens, UniProt P01116, G12D); assay: Microscale thermophoresis, lysine NT-647-labeled GppNHp-loaded KRAS^G12D; assay type: binding; details: read-out: dissociation constant KD
T1 construct: made in house; host or cells: Escherichia coli BL21-Gold (DE3)
Experimental: Microscale Thermophoresis
KRAS^G12D (250 μM) in 25 mM HEPES, 100 mM sodium chloride, 2 mM TCEP with 20 mM EDTA and 1 mM GppNHp was shaken at 220 rpm at 30° C. to remove the endogenous nucleotide, The solution was placed on ice for 2 minutes prior to the addition of 65 mM MgCl2. After an additional 10 minutes incubation on ice, 200 uL of a 10 uM solution of KRAS^G12D was combined with 200 uL of a 20 uM solution of NT-647-NHS-ester dye (from a 652.4 μM stock). The protein/dye mixture was rotated at 4° C. for 30 minutes, before being separated from the excess dye and buffer exchanged into 25 mM Tris, 100 mM sodium chloride, 2 mM TCEP, and 5 mM MgCl2 via a nap-5 column. The test compounds were arrayed across a 16-point dilution series consisting of 1.5% DMSO with 25 mM Tris, 100 mM NaCl, 2 mM TCEP, 5 mM MgCl2 and 0.05% tween-20. Thermophoretic movement of the fluorescently labeled protein with the inhibitors was performed using a Monolith NT.115 (Nanotemper Technologies). RALA and RHOA were purchased commercially from Abcam (RALA CN:ab102555, RHOA CN:ab101594).
In another set of experiments, the top D38-A59 two-site multivalent compounds were evaluated by a RAS pulldown using the RAS binding domain of CRAF (the top two hits are shown in FIG. 14D). This abrogation of binding between RAS and its effector protein was also evident in the RAS-RALGDS interaction (FIG. 14E). To quantify the binding of the two-site compounds to RAS, MST was performed again using lysine NT-647-labeled, GppNHp-loaded KRAS^G12D. […] The third (Y32) site was extended into (compound 34MEW95) using this scaffold.
Docking scores and dissociation constants for binding to GppNHp-bound KRAS^G12D (PDB:4DSN) were measured as set forth above for additional 2- and 3-site compounds by microscale thermophoresis.

[2] = tested on: phosphorylated ERK in BJeLR (HRAS^G12V); assay: Western blot of phosphorylated ERK; assay type: cell-based; details: 2 μM and 8 μM, 24 hours, serum free
Experimental: FIG. 19A-FIG. 19B show BJeLR cells were treated with DMSO, RAS inhibitor at 2 μM and 8 μM, U0126 at 8 μM, or BEZ-235 at 0.2 μM for 24 hours under serum free conditions. Cells were then lysed and the lysate was subjected to detection of phosphorylated Erk and total Erk by western blotting (FIG. 19A). Three independent experiments yielded essentially equivalent results.
BJeLR cells were seeded in 60 mm dishes at 1 million cells/dish in media containing DMEM and 10% FBS with 1% penicillin and streptomycin (PS), 12-16 hours prior to use. The medium was then aspirated and compounds added as solutions in serum free medium (DMEM with 1% PS) to the dishes and treated for 24 hours or at the indicated time points. Following treatment, the medium was aspirated from each dish and cells were washed twice with PBS. […] Antibodies for pERK1/2, ERK1/2, pAKT ser473, AKT, pan-RAS, RALA, PI3Kgamma (Cell signaling), and RAF-1 (Santa Cruz) were detected using a goat anti-rabbit or goat anti-mouse IgG antibody conjugated to an IRdye at 800CW and 680CW conjugated, respectively (Li-COR biosciences).

BxPC-3 (WT) = assay: Cell viability assay (384-well, Alamar blue); assay type: cell-based; details: Homo sapiens, Table 7, 48 hours, 8-point dilution series
Experimental: (§1) All cell culture assays were incubated at 37° C., 5% CO2 in media containing Dulbecco's Modified Eagle Medium (DMEM) with 10% fetal bovine serum (FBS) and 1% penicillin-streptomycin (PS). 384-well format for EC50 determination: cells were trypsinized, counted, and seeded into 384-well plates at 1,000 cells/well. After 12-16 hours, compounds (as 50 mM stocks in DMSO) were arrayed in an 8- or 16-point dilution series in 384-well polypropylene plates. Compound solutions were transferred at a 1:5 dilution into the assay plates. After 48 hours, a 50% Alamar blue solution was added to a final concentration of 10% Alamar blue. After 6 hours of incubation, fluorescence intensity was determined using a Victor3 plate reader (Perkin Elmer) with a 535 nm excitation filter and a 590 nm emission filter. All compound measurements were performed in triplicate. For experiments performed in 6-well format, cells were trypsinized, counted, and seeded into 6-well plates at 200,000 cells per well 16 h prior to use. Media was then aspirated and replaced with 2 mL of media containing compounds at the indicated concentrations (from 10 mM stocks in DMSO). After 24 hours, cells were trypsinized and viability was determined using Trypan Blue exclusion assay.

Calu-1 (KRAS G12C) = assay: Cell viability assay (384-well, Alamar blue); assay type: cell-based; details: Homo sapiens, Calu-1, 48 h
Experimental: as §1

[3] = tested on: MDA-MB-231 cell line (KRAS^G13D); assay: Multicellular tumor spheroids in low adherence plates; assay type: cell-based; details: 72 hours; for size of multicellular tumor spheroids: low-adherence plates
Experimental: Multicellular Tumor Spheroids
Multicellular tumor spheroids (MCTSs) were grown in 96-well Corningware Ultra Low Attachment (ULA) Plates (CLS 3474). 100 μL of cell suspension containing 2×10^4 cells/ml were added to each well of the ULA plate containing 100 μL of a 2× solution of the desired concentration of compounds. Cells were incubated at 37° C., 5% CO2 for 72 hours to allow for MCTS formation. After 72 hours, 50 μL of a 50% solution of Alamar blue and medium was added and incubated for 12 hours prior to measurements on a Victor3 plate reader as previously described.

[4] = Table 7, 8-point dilution series

T1 sequence (P01116 1-169 isoform P01116-2 G12D): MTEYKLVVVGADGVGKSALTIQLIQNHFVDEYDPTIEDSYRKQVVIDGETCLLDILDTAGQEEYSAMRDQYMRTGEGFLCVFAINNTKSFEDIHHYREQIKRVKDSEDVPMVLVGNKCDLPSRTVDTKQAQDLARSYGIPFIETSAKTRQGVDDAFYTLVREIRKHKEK

Kd (GppNHp-loaded KRASG12D) [µM] | Compound | aqueous solubility [1] | Kd (GppNHp-loaded KRASG12D; MST, GppNHp-loaded KRAS^G12D, 34MEW43 and 34MEW95 estimated, no full dose-response curve) [µM] | pERK abundance [2] | EC50 (BxPC-3 (WT)) [µM] | EC50 (Calu-1 (KRAS G12C); [4]) [µM] | EC50 (Calu-1 (KRAS G12C); Table 8, 384-well, alamar blue) [µM] | effect on three dimensional multicellular spheroids ([3]; 20 μM) | size of multicellular tumor spheroids [3]
 | NC1(C(=O)NCCCn2cc(-c3ccc(OC(F)(F)F)cc3)c3cc(CN4CCN(Cc5c(Cl)cccc5Cl)CC4)ccc32)CCNCC1 [Compound 31MEW44, 4-amino-N-(3-(5-((4-(2,6-dichlorobenzyl)piperazin-1-yl)methyl)-3-(4-(trifluoromethoxy)phenyl)-1H-indol-1-yl)propyl)piperidine-4-carboxamide] | more soluble | 9 | effectively decreased pERK abundance in a dose-dependent manner | 5.29 | 3.6 | 3.6 | killed | decreased in size in a dose-dependent manner
73 | NC1(C(=O)NCCCn2cc(-c3cccc(F)c3)c3c(CN4CCN(CCOc5ccc(Cl)cc5)CC4)cccc32)CCNCC1 [Compound 34MEW43, 4-amino-N-(3-(4-((4-(2-(4-chlorophenoxy)ethyl)piperazin-1-yl)methyl)-3-(3-fluorophenyl)-1H-indol-1-yl)propyl)piperidine-4-carboxamide] | low aqueous solubility |  | effectively decreased pERK abundance in a dose-dependent manner | 13.1 | 9.42 | 9.4 |  | decreased in size in a dose-dependent manner
